Measurements reported in patent publication US8124645B2, “LPA receptor antagonist” (Ono Pharmaceutical Co., Ltd., priority 2002, dated 2012).

Target: T1, human EDG-2 (Homo sapiens, UniProt Q92633)
T1 construct: expressed in transfected cells; host or cells: Chinese hamster ovary (CHO) cells
Assay: Evaluation of EDG-2 antagonistic activity by monitoring the change of intracellular calcium ion concentration
Assay type: cell-based
Details: CHO cells overexpressing human EDG-2 gene; LPA final concentration 100 nM; intracellular calcium ion concentration (Fura2-AM)
Procedure: A series of the procedure is based on the basic gene manipuration technique, that is gene overexpressed cells are prepared and a conventional method was utilized. The usual method of measurement was improved for getting enhancement of measurement precision and/or measurement sensitivity of the evaluation of compounds in the present invention. A detailed method of the experiment was shown in the following clause.
Evaluation of EDG-2 antagonistic activity by monitoring the change of intracellular calcium ion concentration
Evaluation of EDG-2 antagonistic activity was carried out by using Chinese hamster ovary (CHO) cells which overexpressed human EDG-2 gene. Those cells were cultured with Ham's F12 medium (GIBCO BRL company No. 11765-047) containing 10% FBS (fetal bovine serum), penicillin/streptomycin and blasticidin (5 μg/ml). At first in order to uptake Fura2-AM (Dojindo company No. 348-05831) into the cells, cells were incubated for 60 minutes at 37 degrees in Fura2-AM (5 μM) solution [Ham's F12 medium containing 10% FBS, 20 mM HEPES buffer (pH 7.4) and 2.5 mM probenecid (Sigma company No. P-8761)]. Next, it was washed with Hanks solution containing HEPES buffer (20 mM, pH 7.4) and probenecid (2.5 mM) once, and immersed into the Hanks solution. Plates were set in fluorescent drug screening system (Hamamatsu photonics company, FDSS-2000) and intracellular calcium ion concentration was measured for 30 seconds with no stimulation and then solution of the compound of the present invention of formula (I) was added. Five minutes after adding thereto LPA (final concentration: 100 nM) was added, the increase of intracellular calcium ion concentrations before and after the addition of LPA (excitation wave length: […]; fluorescent wave length: […]) were measured every 3 seconds. The compound of the present invention represented by the formula (I) was dissolved in dimethyl sulfoxide (DMSO), and it was added so that the final concentration became 1 nM to 10 μM. 1-oleoyl (18:1)-LPA (Sigma) or 1-linolenoyl (18:3)-LPA was used as LPA. […]

T1 sequence (Q92633 whole entry): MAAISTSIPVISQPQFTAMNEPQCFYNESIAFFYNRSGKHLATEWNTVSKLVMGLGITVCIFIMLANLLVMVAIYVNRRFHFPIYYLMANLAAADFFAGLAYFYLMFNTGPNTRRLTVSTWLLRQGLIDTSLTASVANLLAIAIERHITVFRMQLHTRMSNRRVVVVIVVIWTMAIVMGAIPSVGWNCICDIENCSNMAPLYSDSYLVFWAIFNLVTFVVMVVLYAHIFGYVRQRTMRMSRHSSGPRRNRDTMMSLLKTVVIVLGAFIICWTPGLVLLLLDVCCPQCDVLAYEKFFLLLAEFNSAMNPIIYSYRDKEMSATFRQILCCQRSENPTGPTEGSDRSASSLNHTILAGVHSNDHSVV

Row | IC50 | SMILES
1 | 95 nM | COc1cc(OC)cc(C(=O)N(CCCc2ccccc2)Cc2ccc(Oc3ccccc3C(=O)O)cc2)c1 [3(33), 2-(4-(N-(3,5-dimethoxyphenylcarbonyl)-N-(3-phenylpropyl)aminomethyl)phenyloxy)benzoic acid]
2 | 110 nM | COc1cc(C(=O)C(CCCc2ccccc2)Cc2ccc(Oc3ccccc3C(=O)O)cc2)cc(OC)c1OC (stereo not drawn) [8(1), 2-(4-(2-(3,4,5-trimethoxyphenylcarbonyl)-5-phenylpentyl)phenyloxy)benzoic acid]
3 | 150 nM | COc1cc(C(=O)N(CCCc2ccccc2)Cc2ccc(CC(=O)O)cc2)cc(OC)c1C [Example 2(4), (4-(N-(3,5-dimethoxy-4-methylphenylcarbonyl)-N-(3-phenylpropyl)aminomethyl)phenyl)acetic acid]
